{"source": "the supplement of paper PMC10307832", "assay_in_all_cases": "relative viability (nuclei count vs DMSO), 5 days (fraction); higher = more cells survive", "key": {"[1]": {"tested_on": "201T", "procedure,_shortened": "(§1)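 For relative viability, nuclei counts in treated wells were divided by those in vehicle wells. Lung cancer cell lines had been pin-tool dosed in 1536-well plates the day after seeding and cultured for 5 days, then fixed and stained in one step (final 0.05% Triton X-100, 1% formaldehyde, 1 ug/ml Hoechst) and imaged at 4×. Doses were one drug alone or a fixed anchor-drug dose plus five library-drug doses (not always all listed) in √10 steps, and values are duplicate-plate medians.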"}, "[2]": {"tested_on": "A-427", "procedure,_shortened": "as §1"}, "[3]": {"tested_on": "COR-L23", "procedure,_shortened": "as §1"}, "[4]": {"tested_on": "H3255", "procedure,_shortened": "as §1"}, "[5]": {"tested_on": "LCLC-103H", "procedure,_shortened": "as §1"}, "[6]": {"tested_on": "LCLC-97TM1", "procedure,_shortened": "as §1"}, "[7]": {"tested_on": "LK-2", "procedure,_shortened": "as §1"}, "[8]": {"tested_on": "LU99A", "procedure,_shortened": "as §1"}, "[9]": {"tested_on": "NCI-H1563", "procedure,_shortened": "as §1"}, "[10]": {"tested_on": "NCI-H1650", "procedure,_shortened": "as §1"}, "[11]": {"tested_on": "NCI-H1651", "procedure,_shortened": "as §1"}, "[12]": {"tested_on": "NCI-H1793", "procedure,_shortened": "as §1"}, "[13]": {"tested_on": "NCI-H1944", "conditions": "first compound 0.04 µM", "procedure,_shortened": "as §1"}}, "data": [{"smiles": "COc1cc(N2CCC(C(N)=O)CC2)ccc1Nc1nc(N)c(Cl)c(Nc2ccccc2S(=O)(=O)C(C)C)n1", "note": "[HG-5-88-01] + N=C(N)NC(=N)NCCc1ccccc1 [Phenformin] (partner 250 µM)", "values": [{"measurement": "relative viability", "setting": "[1]; first compound 0.04 µM", "result": 0.54}, {"measurement": "relative viability", "setting": "[1]; first compound 0.1265 µM", "result": 0.452}, {"measurement": "relative viability", "setting": "[1]; first compound 0.4 µM", "result": 0.479}, {"measurement": "relative viability", "setting": "[1]; first compound 1.265 µM", "result": 0.547}, {"measurement": "relative viability", "setting": "[1]; first compound 4 µM", "result": 0.397}, {"measurement": "relative viability", "setting": "[2]; first compound 0.04 µM", "result": 0.36}, {"measurement": "relative viability", "setting": "[2]; first compound 0.1265 µM", "result": 0.336}, {"measurement": "relative viability", "setting": "[2]; first compound 0.4 µM", "result": 0.344}, {"measurement": "relative viability", "setting": "[2]; first compound 1.265 µM", "result": 0.367}, {"measurement": "relative viability", "setting": "[2]; first compound 4 µM", "result": 0.214}, {"measurement": "relative viability", "setting": "[3]; first compound 0.04 µM", "result": 0.458}, {"measurement": "relative viability", "setting": "[3]; first compound 0.1265 µM", "result": 0.407}, {"measurement": "relative viability", "setting": "[3]; first compound 0.4 µM", "result": 0.406}, {"measurement": "relative viability", "setting": "[3]; first compound 1.265 µM", "result": 0.377}, {"measurement": "relative viability", "setting": "[3]; first compound 4 µM", "result": 0.39}, {"measurement": "relative viability", "setting": "[4]; first compound 0.04 µM", "result": 0.381}, {"measurement": "relative viability", "setting": "[4]; first compound 0.1265 µM", "result": 0.325}, {"measurement": "relative viability", "setting": "[4]; first compound 0.4 µM", "result": 0.332}, {"measurement": "relative viability", "setting": "[4]; first compound 4 µM", "result": 0.32}, {"measurement": "relative viability", "setting": "[5]; first compound 0.04 µM", "result": 0.332}, {"measurement": "relative viability", "setting": "[5]; first compound 0.1265 µM", "result": 0.342}, {"measurement": "relative viability", "setting": "[5]; first compound 0.4 µM", "result": 0.311}, {"measurement": "relative viability", "setting": "[5]; first compound 1.265 µM", "result": 0.308}, {"measurement": "relative viability", "setting": "[5]; first compound 4 µM", "result": 0.302}, {"measurement": "relative viability", "setting": "[6]; first compound 0.04 µM", "result": 0.483}, {"measurement": "relative viability", "setting": "[6]; first compound 0.1265 µM", "result": 0.42}, {"measurement": "relative viability", "setting": "[6]; first compound 0.4 µM", "result": 0.394}, {"measurement": "relative viability", "setting": "[6]; first compound 1.265 µM", "result": 0.357}, {"measurement": "relative viability", "setting": "[6]; first compound 4 µM", "result": 0.204}, {"measurement": "relative viability", "setting": "[7]; first compound 0.04 µM", "result": 0.516}, {"measurement": "relative viability", "setting": "[7]; first compound 0.1265 µM", "result": 0.394}, {"measurement": "relative viability", "setting": "[7]; first compound 0.4 µM", "result": 0.176}, {"measurement": "relative viability", "setting": "[7]; first compound 1.265 µM", "result": 0.352}, {"measurement": "relative viability", "setting": "[7]; first compound 4 µM", "result": 0.198}, {"measurement": "relative viability", "setting": "[8]; first compound 0.04 µM", "result": 0.801}, {"measurement": "relative viability", "setting": "[8]; first compound 0.1265 µM", "result": 0.78}, {"measurement": "relative viability", "setting": "[8]; first compound 0.4 µM", "result": 0.823}, {"measurement": "relative viability", "setting": "[8]; first compound 1.265 µM", "result": 0.921}, {"measurement": "relative viability", "setting": "[8]; first compound 4 µM", "result": 0.593}, {"measurement": "relative viability", "setting": "[9]; first compound 0.04 µM", "result": 0.7}, {"measurement": "relative viability", "setting": "[9]; first compound 0.1265 µM", "result": 0.64}, {"measurement": "relative viability", "setting": "[9]; first compound 0.4 µM", "result": 0.683}, {"measurement": "relative viability", "setting": "[9]; first compound 1.265 µM", "result": 0.604}, {"measurement": "relative viability", "setting": "[9]; first compound 4 µM", "result": 0.601}, {"measurement": "relative viability", "setting": "[10]; first compound 0.04 µM", "result": 0.452}, {"measurement": "relative viability", "setting": "[10]; first compound 0.1265 µM", "result": 0.386}, {"measurement": "relative viability", "setting": "[10]; first compound 0.4 µM", "result": 0.254}, {"measurement": "relative viability", "setting": "[10]; first compound 1.265 µM", "result": 0.236}, {"measurement": "relative viability", "setting": "[10]; first compound 4 µM", "result": 0.259}, {"measurement": "relative viability", "setting": "[11]; first compound 0.04 µM", "result": 0.358}, {"measurement": "relative viability", "setting": "[11]; first compound 0.1265 µM", "result": 0.341}, {"measurement": "relative viability", "setting": "[11]; first compound 0.4 µM", "result": 0.367}, {"measurement": "relative viability", "setting": "[11]; first compound 1.265 µM", "result": 0.348}, {"measurement": "relative viability", "setting": "[11]; first compound 4 µM", "result": 0.346}, {"measurement": "relative viability", "setting": "[12]; first compound 0.1265 µM", "result": 0.431}, {"measurement": "relative viability", "setting": "[12]; first compound 0.4 µM", "result": 0.375}, {"measurement": "relative viability", "setting": "[12]; first compound 4 µM", "result": 0.221}, {"measurement": "relative viability", "setting": "[13]", "result": 0.213}]}]}
